Source: ChEMBL document CHEMBL4765295, “Synthesis, pharmacological profile and 2D-QSAR studies of curcumin-amino acid conjugates as potential drug candidates” (Eur J Med Chem, 2020)
Where “and” joins values, the source holds several entries; their conditions need not be identical. Identical values can stand only once.

Legend:
[1] = tested on: Staphylococcus aureus; assay: Antibacterial activity against Staphylococcus aureus ATCC 25923 incubated for 18 hrs by agar dilution method; assay type: functional
[2] = tested on: Mus musculus; assay: Analgesic activity in albino mouse assessed as protection at 10 mg/kg, ip measured after 120 mins by hot plate test (reference value: 0 %); assay type: functional; conditions: 2 h
[3] = tested on: Rattus norvegicus; assay: Antiinflammatory activity in Wistar rat model of carrageenan-induced paw edema assessed as reduction in thickness of paw edema at 10 mg/kg, ip pretreated for 1 hr followed by carrageenan challenge and measured after 4 hrs (reference value: 1.40 +/-0.10 mm); assay type: functional; conditions: time 5 hrs
[4] = tested on: Rattus norvegicus; assay: Anti-inflammatory activity in Wistar rat assessed as inhibition of carrageenan-induced paw edema at 10 mg/kg, ip pretreated for 1 hr followed by carrageenan challenge and measured after 4 hr relative to control (reference value: 0.00 +/-0.4 %); assay type: functional; conditions: time 5 hrs
[5] = tested on: A549; assay: Antiproliferative activity against human A549 cells assessed as inhibition of cell growth after 72 hrs by MTT assay; assay type: functional, cell-based; conditions: A549, 72 h
[6] = tested on: Mus musculus; assay: Analgesic activity in albino mouse assessed as forepaw licking/jumping latency time at 10 mg/kg, ip measured after 30 mins by hot plate test (reference value: 5.02 +/- 0.09 sec); assay type: functional; conditions: 0.5 h
[7] = Ulcerogenic activity in fasted albino mouse assessed as ulcer index in gastric mucosa at 10 mg/kg, po for 3 days (reference value: 0); assay type: toxicity, organism-based; conditions: in vivo, 72 h, time 3 day
[8] = tested on: Mus musculus; assay: Analgesic activity in albino mouse assessed as forepaw licking/jumping latency time at 10 mg/kg, ip measured after 60 mins by hot plate test (reference value: 3.42 +/- 0.03 sec); assay type: functional; conditions: 1 h
[9] = tested on: Streptococcus pyogenes; assay: Antibacterial activity against Streptococcus pyogenes ATCC 19615 incubated for 18 hrs by agar dilution method; assay type: functional
[10] = tested on: Mus musculus; assay: Analgesic activity in albino mouse assessed as forepaw licking/jumping latency time at 10 mg/kg, ip measured after 120 mins by hot plate test (reference value: 2.62 +/- 0.06 sec); assay type: functional; conditions: 2 h
[11] = tested on: Mus musculus; assay: Analgesic activity in albino mouse assessed as protection at 10 mg/kg, ip measured after 90 mins by hot plate test (reference value: 0 %); assay type: functional; conditions: 1.5 h
[12] = tested on: Rattus norvegicus; assay: Antiinflammatory activity in Wistar rat model of carrageenan-induced paw edema assessed as reduction in thickness of paw edema at 10 mg/kg, ip pretreated for 1 hr followed by carrageenan challenge and measured after 1 hr (reference value: 2.41 +/-0.05 mm); assay type: functional; conditions: time 1 hr after carrageenan
[13] = Ulcerogenic activity in fasted albino mouse assessed as average severity of ulcers in gastric mucosa at 10 mg/kg, po for 3 days (reference value: 0); assay type: toxicity, organism-based; conditions: in vivo, 72 h, time 3 day
[14] = tested on: Mus musculus; assay: Analgesic activity in albino mouse assessed as forepaw licking/jumping latency time at 10 mg/kg, ip measured after 90 mins by hot plate test (reference value: 2.72 +/- 0.01 sec); assay type: functional; conditions: 1.5 h
[15] = tested on: Mus musculus; assay: Analgesic activity in albino mouse assessed as protection at 10 mg/kg, ip measured after 120 mins by hot plate test relative to indomethacin; assay type: functional; conditions: 2 h
[16] = tested on: Candida albicans; assay: Antifungal activity against Candida albicans incubated for 18 to 24 hrs by CLSI method; assay type: functional; conditions: time 18-24 hrs
[17] = tested on: Rattus norvegicus; assay: Antiinflammatory activity in Wistar rat model of carrageenan-induced paw edema assessed as reduction in thickness of paw edema at 10 mg/kg, ip pretreated for 1 hr followed by carrageenan challenge and measured after 3 hrs (reference value: 1.79 +/-0.07 mm); assay type: functional; conditions: time 4 hrs
[18] = tested on: Mus musculus; assay: Analgesic activity in albino mouse assessed reduction in acetic acid-induced abdominal writhing by measuring writing reflex at 10 mg/kg, ip pretreated for 1 hr followed by acetic acid challenge and measured starting 5 mins post acetic acid challenge for 10 mins (reference value: 42.4 +/- 1.02); assay type: functional; conditions: time 75 min, 1.25 h
[19] = tested on: Mus musculus; assay: Analgesic activity in albino mouse assessed protection against acetic acid-induced abdominal writhing at 10 mg/kg, ip pretreated for 1 hr followed by acetic acid challenge and measured starting 5 mins post acetic acid challenge for 10 mins relative to control (reference value: 0 %); assay type: functional; conditions: time 75 min, 1.25 h
[20] = Ulcerogenic activity in fasted albino mouse assessed as average number of ulcers in gastric mucosa at 10 mg/kg, po for 3 days (reference value: 0); assay type: toxicity, organism-based; conditions: in vivo, 72 h, time 3 day
[21] = tested on: Rattus norvegicus; assay: Anti-inflammatory activity in Wistar rat assessed as inhibition of carrageenan-induced paw edema at 10 mg/kg, ip pretreated for 1 hr followed by carrageenan challenge and measured after 3 hr relative to control (reference value: 0.00 +/-0.1 %); assay type: functional; conditions: time 4 hrs
[22] = tested on: MCF7; assay: Antiproliferative activity against human MCF7 cells assessed as inhibition of cell growth after 72 hrs by MTT assay; assay type: functional, cell-based; conditions: MCF7, 72 h
[23] = tested on: Mus musculus; assay: Analgesic activity in albino mouse assessed protection against acetic acid-induced abdominal writhing at 10 mg/kg, ip pretreated for 1 hr followed by acetic acid challenge and measured starting 5 mins post acetic acid challenge for 10 mins relative to indomethacin; assay type: functional; conditions: time 75 min, 1.25 h
[24] = tested on: Peritoneal macrophage; assay: Antiinflammatory activity in […] mouse Peritoneal macrophages assessed as inhibition of LPS-induced NO production at 10 uM preincubated for 1 hr followed by LPS stimulation measured after 24 hrs by Griess method relative to control (reference value: 0.0 %); assay type: functional; set-up: scale not given: the % may be the effect or the level left; conditions: time 25 hrs
[25] = tested on: PC-3; assay: Antiproliferative activity against human PC3 cells assessed as inhibition of cell growth after 72 hrs by MTT assay; assay type: functional, cell-based; conditions: PC-3, 72 h
[26] = tested on: Salmonella typhimurium; assay: Antibacterial activity against Salmonella typhimurium ATCC 19430 incubated for 18 hrs by agar dilution assay; assay type: functional, Salmonella enterica subsp. enterica serovar Typhimurium; conditions: Salmonella enterica
[27] = Ulcerogenic activity in fasted albino mouse assessed as incidence of gastric ulceration at 10 mg/kg, po for 3 days (reference value: 0 %); assay type: toxicity, organism-based; conditions: in vivo, 72 h, time 3 day
[28] = tested on: Peritoneal macrophage; assay: Antiinflammatory activity in […] mouse Peritoneal macrophages assessed as reduction in LPS-induced NO production by measuring reduction in stimulation index at 10 uM preincubated for 1 hr followed by LPS stimulation measured after 24 hrs by Griess method (reference value: 27.31 +/- 2.56 uM); assay type: functional; conditions: time 25 hrs
[29] = tested on: Splenocyte; assay: Immunomodulatory activity in Swiss albino mouse splenocytes assessed as cell viability at 10 uM by measuring inhibition of stimulation index incubated for 72 hrs in presence of mitogenic stimulus phytohaemagglutinin by MTT assay relative to indomethacin; assay type: functional; conditions: read-out: Activity
[30] = tested on: Rattus norvegicus; assay: Antiinflammatory activity in Wistar rat model of carrageenan-induced paw edema assessed as reduction in thickness of paw edema at 10 mg/kg, ip pretreated for 1 hr followed by carrageenan challenge and measured after 24 hrs (reference value: 0.83 +/-0.08 mm); assay type: functional; conditions: time 25 hrs
[31] = tested on: Rattus norvegicus; assay: Anti-inflammatory activity in Wistar rat assessed as inhibition of carrageenan-induced paw edema at 10 mg/kg, ip pretreated for 1 hr followed by carrageenan challenge and measured after 24 hr relative to control (reference value: 0.00 +/-0.3 %); assay type: functional; conditions: time 25 hrs
[32] = tested on: Rattus norvegicus; assay: Anti-inflammatory activity in Wistar rat assessed as inhibition of carrageenan-induced paw edema at 10 mg/kg, ip pretreated for 1 hr followed by carrageenan challenge and measured after 1 hr relative to control (reference value: 0.00 +/-0.02 %); assay type: functional; conditions: time 2 hrs
[33] = tested on: Splenocyte; assay: Immunomodulatory activity in Swiss albino mouse splenocytes assessed as cell viability at 10 uM by measuring stimulation index incubated for 72 hrs in presence of mitogenic stimulus phytohaemagglutinin by MTT assay (reference value: 1.00 +/- 0.24); assay type: functional
[34] = Toxicity in albino mouse assessed as induction of toxic symptoms at 50 to 100 mg/kg, ip measured after 24 hrs; assay type: organism-based; conditions: in vivo, dose 50-100 mg/kg
[35] = tested on: Mus musculus; assay: Analgesic activity in albino mouse assessed as protection at 10 mg/kg, ip measured after 60 mins by hot plate test (reference value: 0 %); assay type: functional; conditions: 1 h
[36] = tested on: Rattus norvegicus; assay: Anti-inflammatory activity in Wistar rat assessed as inhibition of carrageenan-induced paw edema at 10 mg/kg, ip pretreated for 1 hr followed by carrageenan challenge and measured after 2 hr relative to control (reference value: 0.00 +/-0.03 %); assay type: functional; conditions: time 3 hrs
[37] = tested on: Rattus norvegicus; assay: Anti-inflammatory activity in Wistar rat assessed as inhibition of carrageenan-induced paw edema at 10 mg/kg, ip pretreated for 1 hr followed by carrageenan challenge and measured after 4 hr relative to indomethacin; assay type: functional; conditions: time 5 hrs
[38] = tested on: Pseudomonas aeruginosa; assay: Antibacterial activity against Pseudomonas aeruginosa ATCC 27853 incubated for 18 hrs by agar dilution assay; assay type: functional
[39] = tested on: Rattus norvegicus; assay: Antiinflammatory activity in Wistar rat model of carrageenan-induced paw edema assessed as reduction in thickness of paw edema at 10 mg/kg, ip pretreated for 1 hr followed by carrageenan challenge and measured after 2 hrs (reference value: 2.06 +/-0.09 mm); assay type: functional; conditions: time 3 hrs
[40] = tested on: Mus musculus; assay: Analgesic activity in albino mouse assessed as protection at 10 mg/kg, ip measured after 30 mins by hot plate test (reference value: 0 %); assay type: functional; conditions: 0.5 h

In the case of COc1cc(/C=C/C(=O)/C=C(O)/C=C/c2ccc(OC(=O)[C@H](N)CCSC)c(OC)c2)ccc1OC(=O)[C@H](N)CCSC.Cl.Cl, the MIC [1] is reported as 0.125 µg/mL and 0.178 µM, the Activity [2] is reported as 22.9% and the Activity [3] is reported as 0.03 mm. For the same compound, the inhibition in vivo at 10 mg/kg [4] was 98%, the IC50 [5] was 20 µM and the Time [6] was 5.36 s. The UI [7] was 0, the Time [8] was 4.78 s and the MIC [9] was 0.25 µg/mL and 0.355 µM. It also gave a Time [10] of 3.22 s, an Activity [11] of 23.5% and an Activity [12] of 0.99 mm. For the same compound, the Activity [13] was 0, the Time [14] was 3.36 s and the Activity [15] was 54.5%. The MIC [16] was 1 µg/mL and 1.42 µM, the Activity [17] was 0.62 mm and the Activity [18] was 19.8. The Activity [19] was 53.3%, the Activity [20] was 0 and the inhibition in vivo at 10 mg/kg [21] was 65%. For the same compound, the IC50 [22] was 10.2 µM, the Activity [23] was 86.5% and the Activity [24] was 49.57%. The IC50 [25] was 41.5 µM, the MIC [26] was 0.25 µg/mL and 0.355 µM and the Activity [27] was 0%. It also gave an Activity [28] of 13.77 µM, a viability at 10 µM [29] of 120% and an Activity [30] of 0.54 mm. For the same compound, the inhibition in vivo at 10 mg/kg [31] was 35%, the inhibition in vivo at 10 mg/kg [32] was 59% and the Activity_index [33] was 1.01. The Activity [34] was “Non-Toxic”, the Activity [35] was 39.8% and the inhibition in vivo at 10 mg/kg [36] was 54%. The inhibition in vivo at 10 mg/kg [37] was 113%, the MIC [38] was 1 µg/mL and 1.42 µM and the Activity [39] was 0.95 mm. For the same compound, the Activity [40] was 6.8%.
